The assay has as its target T1, purified human 15-lipoxygenase (Homo sapiens, UniProt P16050).
T1 sequence (P16050 1-662): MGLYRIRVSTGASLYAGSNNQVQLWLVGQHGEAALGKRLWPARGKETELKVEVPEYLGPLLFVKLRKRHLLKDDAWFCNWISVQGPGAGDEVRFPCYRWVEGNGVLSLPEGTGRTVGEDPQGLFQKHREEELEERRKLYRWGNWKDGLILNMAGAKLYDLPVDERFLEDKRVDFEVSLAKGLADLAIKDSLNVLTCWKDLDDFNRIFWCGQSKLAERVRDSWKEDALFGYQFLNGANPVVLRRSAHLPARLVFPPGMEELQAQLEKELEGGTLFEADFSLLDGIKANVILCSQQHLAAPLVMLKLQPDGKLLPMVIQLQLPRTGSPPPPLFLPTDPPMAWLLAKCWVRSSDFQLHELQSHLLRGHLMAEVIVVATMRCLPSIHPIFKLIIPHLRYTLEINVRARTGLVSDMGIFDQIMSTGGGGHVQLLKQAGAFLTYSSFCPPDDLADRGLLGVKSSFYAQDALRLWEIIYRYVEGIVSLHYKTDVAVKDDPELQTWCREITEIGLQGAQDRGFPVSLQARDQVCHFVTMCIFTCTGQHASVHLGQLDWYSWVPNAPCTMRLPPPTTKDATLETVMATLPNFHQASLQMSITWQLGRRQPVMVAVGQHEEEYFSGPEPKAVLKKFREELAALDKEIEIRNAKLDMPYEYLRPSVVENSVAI
Put plainly: 15-lipoxygenase inhibition assay (arachidonic acid oxidation, HPLC readout). The format is biochemical. The conditions noted are these: arachidonic acid substrate, room temperature. As for the experimental part: The assay employed takes advantage of the ability of lipoxygenases to oxidize polyunsaturated fatty acids, containing a 1,4-cis-pentadiene configuration, to their corresponding hydroperoxy or hydroxyl derivatives. In this particular assay, the lipoxygenase was a purified human 15-lipoxygenase and the fatty acid was arachidonic acid. The assay is performed at room temperature (20-22° C.) and the following are added to each well in a 96-well microtiter plate:
a) 35 μL phosphate buffered saline (PBS) (pH 7.4); b) inhibitor (i.e. compound) or vehicle (0.5 μl DMSO); c) 10 μL of a 10× concentrated solution of 15-lipoxygenase in PBS. The plates are incubated for 5 minutes at room temperature; d) 5 μl of 0.125 mM arachidonic acid in PBS. The plate is then incubated for 10 minutes at room temperature; e) the enzymatic reaction is terminated by the addition of 100 μl methanol; and
f) the amount of 15-hydroperoxy-eicosatetraenoic acid or 15-hydroxy-eicosatetraenoic acid is measured by reverse phase HPLC.

SMILES strings stand for the structures.

`O=C(Nc1ccc(OC(F)(F)F)cc1Br)c1cc[nH]n1` [Example 2, N-(2-Bromo-4-trifluoromethoxyphenyl)pyrazole-3-carboxamide] registered an IC50 of 160 nM.
`O=C(Nc1ccc(F)c(F)c1F)c1cc[nH]n1` [Example 7, N-(2,3,4-Trifluorophenyl)pyrazole-3-carboxamide]: the IC50 is 1800 nM.
`Cc1cc(Cl)ccc1NC(=O)c1cc[nH]n1` [Example 9, N-(4-Chloro-2-methylphenyl)pyrazole-3-carboxamide] came in with an IC50 of 750 nM.
`O=C(Nc1cc(Cl)ccc1Cl)c1cc[nH]n1` [Example 13, N-(2,5-Dichlorophenyl)pyrazole-3-carboxamide]: the IC50 turned out to be 1100 nM. This IC50 and that of the compound before are within 1.5-fold of each other.
`Cc1ccc(NC(=O)c2cc[nH]n2)c(C)c1` [Example 14, N-(2,4-Dimethylphenyl)pyrazole-3-carboxamide] displayed an IC50 of 840 nM. This IC50 and that of the compound before are within 1.5-fold of each other.
Compound `O=C(Nc1ccc(Br)cc1OC(F)(F)F)c1cc[nH]n1` [Example 15, N-(4-Bromo-2-trifluoromethoxyphenyl)pyrazole-3-carboxamide] showed an IC50 of 140 nM. Compared with the last compound, the IC50 is about 6-fold lower.

The IC50 is the concentration that gives 50% inhibition. Read a low IC50 as greater potency in that assay.

The record behind these values is patent US20090088463A1, “Pyrazoles Useful in the Treatment of Inflammation” (priority 2005, published 2009).
